# Assay results as given in patent US20220017566A1, “TERPINOID DERIVATIVES AND USES THEREOF” (SICHUAN HAISCO PHARMACEUTICAL CO., LTD., priority 2018, published 2022).
# pEC50, pIC50: −log10 of the molar value. Read-outs that look alike come from different tables or passages of the source.
# Columns and labels:
# [1] = tested on: IFNγ-induced NO production in Raw 264.7 cells; assay: Nitric oxide assay: suppression of IFNγ-induced NO production (Griess nitrite, adjusted to live cell numbers); assay type: cell-based; settings: Mus musculus, RAW264.7, 2 h pretreatment, IFNγ 10 ng/ml for 24 hours
# How it was run: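 Raw 264.7 cells in DMEM + 2% FBS were pretreated 2 h with compound (10-point, 1:4 dilution from 100 nM), then stimulated with 10 ng/ml mouse IFNγ for 24 h. Media nitrite was read by Griess and normalised to CellTiter-Glo viability. IC50 from four-parameter fit of % inhibition.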
# NQO1 = NQO1 activity assay in Raw264.7 cell lysates; assay type: cell-based; settings: Mus musculus; Raw264.7 cells, 48 hours treatment
# Procedure: Raw264.7 cells were seeded in DMEM+10% FBS in 96-well plates at a density of 10,000 cells per well. 6 hours after plating, cells were treated with DMSO or test compounds (top dose 100 nM, 1:4 serial dilution, 8-point) for 48 hours. NQO1 activity was then detected in cell lysates using NQO1 activity assay kit (Abeam, Cat#ab184867). NQO1 activity was then plotted against compound concentration, and EC50 values were calculated using four-parameter algorithm in Graphpad Prism.
# CYP1A2 = biological target: T1, CYP1A2 (Homo sapiens, UniProt P05177); assay: CYP450 enzyme inhibition in liver microsomes (cocktail probe incubation); assay type: in vitro ADME; settings: species not given, 0.05-50 μM tested
# T1 construct: studied in liver microsomes of CD-1 mouse, Sprague Dawley rat, Beagle dog, cynomolgus monkey, and human; from tissue; host or cells: liver microsomes
# T1 sequence (P05177 1-516): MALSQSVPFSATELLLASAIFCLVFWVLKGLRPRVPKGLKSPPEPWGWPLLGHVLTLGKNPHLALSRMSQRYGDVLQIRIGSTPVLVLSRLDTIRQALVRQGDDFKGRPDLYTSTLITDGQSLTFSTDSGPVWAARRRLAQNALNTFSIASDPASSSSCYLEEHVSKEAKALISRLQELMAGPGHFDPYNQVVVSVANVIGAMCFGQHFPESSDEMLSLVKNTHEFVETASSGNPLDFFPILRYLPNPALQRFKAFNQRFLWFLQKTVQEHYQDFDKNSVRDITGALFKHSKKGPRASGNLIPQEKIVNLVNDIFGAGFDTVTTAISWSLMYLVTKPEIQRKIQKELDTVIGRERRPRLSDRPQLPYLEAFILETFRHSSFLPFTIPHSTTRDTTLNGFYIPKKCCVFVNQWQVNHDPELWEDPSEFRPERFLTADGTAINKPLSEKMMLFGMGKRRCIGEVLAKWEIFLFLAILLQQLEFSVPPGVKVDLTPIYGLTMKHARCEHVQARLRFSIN
# How it was run: (§1)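 Liver microsomes (CD-1 mouse, SD rat, Beagle dog, cynomolgus monkey, human) incubated with a cocktail of CYP-specific probe substrates. Test compounds at seven concentrations (0.05, 0.15, 0.5, 1.5, 5, 15, 50 μM). Known inhibitors included as positive controls at a single concentration above their IC50.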
# CYP2C19 = biological target: T2, CYP2C19 (Homo sapiens, UniProt P33261); assay: as above; assay type: in vitro ADME; settings: species not given, 0.05-50 μM tested
# T2 construct: studied in liver microsomes of CD-1 mouse, Sprague Dawley rat, Beagle dog, cynomolgus monkey, and human; from tissue; host or cells: liver microsomes
# T2 sequence (P33261 whole entry): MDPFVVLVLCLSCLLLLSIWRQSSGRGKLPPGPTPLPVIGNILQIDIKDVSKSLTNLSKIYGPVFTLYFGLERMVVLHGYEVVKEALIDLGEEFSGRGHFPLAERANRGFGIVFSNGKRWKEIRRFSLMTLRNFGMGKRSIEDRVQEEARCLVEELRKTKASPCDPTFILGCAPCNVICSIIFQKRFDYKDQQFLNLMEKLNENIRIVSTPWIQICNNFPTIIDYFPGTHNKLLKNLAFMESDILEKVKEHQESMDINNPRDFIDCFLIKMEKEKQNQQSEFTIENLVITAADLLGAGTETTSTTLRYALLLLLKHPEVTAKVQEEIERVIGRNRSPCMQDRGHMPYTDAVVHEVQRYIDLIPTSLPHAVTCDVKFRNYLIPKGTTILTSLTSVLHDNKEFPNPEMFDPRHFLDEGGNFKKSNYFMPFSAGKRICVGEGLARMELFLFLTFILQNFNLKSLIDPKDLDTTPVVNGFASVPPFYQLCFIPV
# How it was run: as §1
# CYP2C9 = biological target: T3, CYP2C9 (Homo sapiens, UniProt P11712); assay: as above; assay type: in vitro ADME; settings: species not given, 0.05-50 μM tested
# T3 construct: studied in liver microsomes of CD-1 mouse, Sprague Dawley rat, Beagle dog, cynomolgus monkey, and human; from tissue; host or cells: liver microsomes
# T3 sequence (P11712 whole entry): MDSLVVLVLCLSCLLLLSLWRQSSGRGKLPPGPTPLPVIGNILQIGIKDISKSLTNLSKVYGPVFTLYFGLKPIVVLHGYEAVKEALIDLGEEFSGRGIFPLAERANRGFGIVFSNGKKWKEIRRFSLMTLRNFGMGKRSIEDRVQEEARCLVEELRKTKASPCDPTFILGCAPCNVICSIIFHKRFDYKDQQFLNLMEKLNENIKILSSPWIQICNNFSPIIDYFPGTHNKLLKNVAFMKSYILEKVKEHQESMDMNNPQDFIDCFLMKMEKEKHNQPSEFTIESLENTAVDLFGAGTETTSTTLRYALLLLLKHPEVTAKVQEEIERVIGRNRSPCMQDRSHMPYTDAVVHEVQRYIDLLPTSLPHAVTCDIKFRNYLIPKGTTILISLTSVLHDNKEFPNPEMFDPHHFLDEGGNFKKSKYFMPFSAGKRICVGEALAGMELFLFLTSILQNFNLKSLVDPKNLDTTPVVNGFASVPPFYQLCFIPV
# How it was run: as §1
# CYP2D6 = biological target: T4, CYP2D6 (Homo sapiens, UniProt P10635); assay: as above; assay type: in vitro ADME; settings: species not given, 0.05-50 μM tested
# T4 construct: studied in liver microsomes of CD-1 mouse, Sprague Dawley rat, Beagle dog, cynomolgus monkey, and human; from tissue; host or cells: liver microsomes
# T4 sequence (P10635 whole entry): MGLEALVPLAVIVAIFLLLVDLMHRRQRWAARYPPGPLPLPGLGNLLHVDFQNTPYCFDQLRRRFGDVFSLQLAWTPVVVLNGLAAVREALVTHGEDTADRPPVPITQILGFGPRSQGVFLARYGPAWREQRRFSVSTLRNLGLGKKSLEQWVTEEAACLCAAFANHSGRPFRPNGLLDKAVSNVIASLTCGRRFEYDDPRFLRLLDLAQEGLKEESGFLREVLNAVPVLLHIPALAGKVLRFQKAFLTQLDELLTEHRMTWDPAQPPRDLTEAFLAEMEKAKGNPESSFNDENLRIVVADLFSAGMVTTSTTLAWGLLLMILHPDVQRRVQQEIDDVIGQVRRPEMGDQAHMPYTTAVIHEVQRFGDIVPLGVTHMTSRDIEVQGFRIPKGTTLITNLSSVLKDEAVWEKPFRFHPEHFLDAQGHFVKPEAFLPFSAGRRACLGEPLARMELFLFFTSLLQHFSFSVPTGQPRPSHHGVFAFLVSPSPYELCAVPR
# How it was run: as §1
# CYP3A4 = biological target: T5, CYP3A4 (Homo sapiens, UniProt P08684); assay: as above; assay type: in vitro ADME; settings: species not given, 0.05-50 μM tested
# T5 construct: studied in liver microsomes of CD-1 mouse, Sprague Dawley rat, Beagle dog, cynomolgus monkey, and human; from tissue; host or cells: liver microsomes
# T5 sequence (P08684 whole entry): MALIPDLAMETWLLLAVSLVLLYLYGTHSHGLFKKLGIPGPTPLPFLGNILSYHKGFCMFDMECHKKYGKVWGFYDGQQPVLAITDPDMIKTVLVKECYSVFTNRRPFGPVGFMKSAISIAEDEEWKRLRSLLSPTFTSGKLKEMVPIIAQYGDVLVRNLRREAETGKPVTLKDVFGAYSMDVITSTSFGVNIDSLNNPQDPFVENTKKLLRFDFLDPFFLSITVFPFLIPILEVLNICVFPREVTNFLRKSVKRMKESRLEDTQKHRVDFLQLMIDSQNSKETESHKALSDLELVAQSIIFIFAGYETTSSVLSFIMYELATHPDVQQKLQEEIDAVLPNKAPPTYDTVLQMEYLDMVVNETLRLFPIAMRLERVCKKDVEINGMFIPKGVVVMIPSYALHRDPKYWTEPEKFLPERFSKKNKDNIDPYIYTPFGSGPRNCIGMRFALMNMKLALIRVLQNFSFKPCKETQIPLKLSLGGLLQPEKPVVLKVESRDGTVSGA
# How it was run: as §1
# [2] = Metabolic stability in human liver microsomes; assay type: in vitro ADME
# Procedure: (§2) The metabolic stability of test compounds was examined in CD-1 mouse, Sprague Dawley rat, Beagle dog, cynomolgus monkey, and human liver microsomes. Test compound (final concentration 1 μM) was mixed with diluted liver microsomes from each of the 5 species and a small aliquot was taken at 0, 5, 10, 20, 30, and 60 minutes for LC/MS/MS analysis. Intrinsic clearance and half-life were calculated.
# [3] = Metabolic stability in rat liver microsomes; assay type: in vitro ADME; settings: Sprague Dawley
# Procedure: as §2
# [4] = Metabolic stability in mouse liver microsomes; assay type: in vitro ADME, CD-1 mouse; settings: CD-1
# Procedure: as §2
# [5] = Metabolic stability in dog liver microsomes; assay type: in vitro ADME; settings: Beagle
# Procedure: as §2
# [6] = Metabolic stability in monkey liver microsomes; assay type: in vitro ADME, cynomolgus monkey
# Procedure: as §2
# [7] = Pharmacokinetic studies in Sprague Dawley rats (oral gavage and IV); assay type: in vivo; settings: rat, male SD rats, plasma; for AUC(0-t): read-out: AUC0-24 h; for bioavailability: oral 5 mg/kg vs IV 1 mg/kg, read-out: Bioavailibility F %
# Procedure: The pharmacokinetics of test compounds was evaluated in male SD rats when administered via oral gavage and IV injection. For oral dosing, compound was formulated in 0.5% methylcellulose and administered at doses of 5 mg/kg (3 rats per dose level) and volume of 10 mL/kg. For IV dosing, compound was formulated in 5% DMSO/5% Solutol/90% saline and administered to 3 rats at a dose of 1 mg/kg and a volume of 5 mL/kg. The rats were fasted overnight before administration. Plasma samples were collected predose and at 0.5, 1, 3, 6, 9, 12, and 24 hours postdose. The samples were analyzed by LC/MS/MS and the concentration of test compound at each timepoint was determined by linear regression. Pharmacokinetic parameters were calculated from the plasma concentrations using Pheonix WinNonlin.
pIC50 [1],pEC50 (NQO1),pIC50 (CYP1A2),pIC50 (CYP2C19),pIC50 (CYP2C9),pIC50 (CYP2D6),pIC50 (CYP3A4),CLint scaled at 1 μM [2],half-life at 1 μM [2],CLint scaled at 1 μM [3],half-life at 1 μM [3],CLint scaled at 1 μM [4],half-life at 1 μM [4],CLint scaled at 1 μM [5],half-life at 1 μM [5],CLint scaled at 1 μM [6],half-life at 1 μM [6],C0 ([7]; IV (1 mg/kg)),clearance ([7]; IV (1 mg/kg)),half-life ([7]; IV (1 mg/kg)),Compound,further results
> 8.00,7.00 to 8.00,< 4.30,5.35,5.80,5.66,5.48,2.05 L/h/kg,36.5 min,2.33 L/h/kg,64.3 min,8.84 L/h/kg,37.3 min,6.07 L/h/kg,19.7 min,6.21 L/h/kg,18.1 min,0.747 µg/mL,3.05 L/h/kg,192 min,"CC(=NC#N)NC[C@]12CCC(C)(C)C[C@H]1[C@H]1C(=O)C=C3[C@@]4(C)C=C(C#N)C(=O)C(C)(C)[C@@H]4CC[C@@]3(C)[C@]1(C)CC2 [Example 4, N′-cyano-N-(((4aS,6aR,6bS,8aR,12aS,14aR,14bS)-11-cyano-2,2,6a,6b,9,9,12a-heptamethyl-10,14-dioxo-1,3,4,5,6,6a,6b,7,8,8a,9,10,12a,14,14a,14b-hexadecahydropicen-4a(2H)-yl)methyl)acetimidamide]",AUC(0-t) ([7]; IV (1 mg/kg)): 0.292 µg·h/mL; Cmax ([7]; Oral (5 mg/kg)): 0.051 µg/mL; half-life ([7]; Oral (5 mg/kg)): 174 min; AUC(0-t) ([7]; Oral (5 mg/kg)): 0.214 µg·h/mL; bioavailability [7]: 14.6%
> 8.00,7.00 to 8.00,< 4.30,< 4.30,5.16,< 4.30,5.18,5.77 L/h/kg,13 min,5.23 L/h/kg,28.6 min,17.3 L/h/kg,19 min,3.5 L/h/kg,34.2 min,17.6 L/h/kg,6.4 min,1.3 µg/mL,3.8 L/h/kg,84 min,"CC1(C)C(=O)C(C#N)=C[C@]2(C)C3=CC(=O)[C@@H]4[C@@H]5C[C@@](C)(c6nnc(C(N)=O)o6)CC[C@]5(C)CC[C@@]4(C)[C@]3(C)CC[C@@H]12 [Example 25, 5-((2S,4aS,6aR,6bS,8aR,12aS,14aR,14bS)-11-cyano-2,4a,6a,6b,9,9,12a-heptamethyl-10,14-dioxo-1,2,3,4,4a,5,6,6a,6b,7,8,8a,9,10,12a,14,14a,14b-octadecahydropicen-2-yl)-1,3,4-oxadiazole-2-carboxamide]",AUC(0-t) ([7]; IV (1 mg/kg)): 0.263 µg·h/mL; Cmax ([7]; Oral (5 mg/kg)): 0.032 µg/mL; half-life ([7]; Oral (5 mg/kg)): 78 min; AUC(0-t) ([7]; Oral (5 mg/kg)): 0.102 µg·h/mL; bioavailability [7]: 7.8%
> 8.00,> 8.00,< 4.30,< 4.30,4.56,< 4.30,4.84,11 L/h/kg,6.8 min,9.67 L/h/kg,15.5 min,24.1 L/h/kg,13.7 min,4.64 L/h/kg,25.8 min,45.1 L/h/kg,2.5 min,1.04 µg/mL,3.38 L/h/kg,282 min,"CC1(C)C(=O)C(C#N)=C[C@]2(C)C3=CC(=O)[C@@H]4[C@@H]5C[C@@](C)(N6CC(O)C6)CC[C@]5(C)CC[C@@]4(C)[C@]3(C)CC[C@@H]12 [Example 26, (4aR,6aS,6bR,8aS,11S,12aS,14bS)-11-(3-hydroxyazetidin-1-yl)-4,4,6a,6b,8a,11,14b-heptamethyl-3,13-dioxo-3,4,4a,5,6,6a,6b,7,8,8a,9,10,11,12,12a,12b,13,14b-octadecahydropicene-2-carbonitrile]",AUC(0-t) ([7]; IV (1 mg/kg)): 0.294 µg·h/mL; Cmax ([7]; Oral (5 mg/kg)): 0.057 µg/mL; half-life ([7]; Oral (5 mg/kg)): 216 min; AUC(0-t) ([7]; Oral (5 mg/kg)): 0.27 µg·h/mL; bioavailability [7]: 18.3%
